Assay results as given in US20240409557A1, “5,6-FUSED AND 6,6-FUSED BICYCLIC ALCOHOLS AND ETHERS AND COMPOSITIONS FOR USE AS 15-PROSTAGLANDIN DEHYDROGENASE MODULATORS” (AMGEN INC., priority 2023, published 2024).

Each compound was assayed against T1, 15-PGDH in A549 cells (Homo sapiens, UniProt P15428) (assay: A549 cellular 15-PGDH assay (PGE2 accumulation, HTRF)). Details: interleukin-stimulated, inhibitor 24 hrs, PGE2 by competitive HTRF, read-out: A549 Cell Assay IC50.
T1 construct: endogenous in cells; host or cells: A549
T1 sequence (P15428 1-266): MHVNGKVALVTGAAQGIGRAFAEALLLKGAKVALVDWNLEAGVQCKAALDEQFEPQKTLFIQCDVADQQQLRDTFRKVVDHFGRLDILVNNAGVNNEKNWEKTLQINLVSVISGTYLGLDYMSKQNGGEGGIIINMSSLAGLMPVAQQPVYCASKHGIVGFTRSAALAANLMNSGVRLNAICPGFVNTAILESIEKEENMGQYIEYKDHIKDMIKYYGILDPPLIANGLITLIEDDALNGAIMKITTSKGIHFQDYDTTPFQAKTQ
Format: cell-based
From the text: This assay was used for the quantification of IL-13 induced Native Prostaglandin E2 (PGE2) produced by A549 cells (epithelial cells from lung carcinoma) in cell culture supernatants. […] PGE2 was detected in a competitive HTRF assay by using anti PGE2 antibody labeled with Europium cryptate, and PGE2 labeled with […]. The PGE2 present in the sample competes with the binding between the two HTRF detection solutions (reagents) and thereby prevents FRET from occurring. The specific signal is inversely proportional to the PGE2 concentration. From this binding data, IC50 values were calculated.

IC50 [nM]	Structure (SMILES)
1.03	Cn1cc2cc(-c3ccc4cc(C(O)[C@H]5CCOC5)sc4n3)cnc2n1 (single isomer, unassigned) [B19(RS)S]
4.86	C[C@@H](O)c1cc2c(-c3ccnn3C)cc(-c3cnc4nn(C)cc4c3)nc2s1 (single isomer, unassigned) [Compound B6R]
102	C[C@H](O)c1cc2c(-c3ccnn3C)cc(-c3cnc4nn(C)cc4c3)nc2s1 (single isomer, unassigned) [Compound B6S]

What follows are compounds tested against T2, human recombinant 15-PGDH (Homo sapiens, UniProt P15428) (assay: Recombinant 15-PGDH enzymatic inhibition assay (PGDH-Lumi, NADH signal)). Details: recombinant 15-PGDH; 15 min pre-incubation, 60 min reaction with PGE2 and NAD+, NADH signal.
T2 sequence (P15428 1-266): T1 sequence (P15428 1-266)
Format: biochemical
Procedure: These assays measured 15-PGDH enzymatic activity by quantifying the amount of NADH produced during a 60-minute reaction initiated by the addition of PGE2 and NAD+. Under the conditions of these experiments, the increase of NADH signal upon oxidation of PGE2 and reduction of NAD+ was linearly proportional to 15-PGDH enzymatic activity. The recombinant human, mouse, rat and dog 15-PGDH enzymatic assays were performed in a 25 μL volume of reaction buffer containing 50 mM Tris, pH 7.5, 0.01% Tween-20 and […] DTT in a 384-well microtiter plate. In concentration-response experiments with tested compounds, 22 concentrations from 2-fold serial dilutions in DMSO were pre-incubated with 15-PGDH for 15 minutes at room temperature. Then, PGE2 and β-NAD+ were added to initiate the 15-PGDH reaction. After 60 minutes at room temperature, the reaction was quenched and NADH signal was measured using a microtiter plate reader.
The following data (Table 27-1) provides the IC50 in μM of each compound for inhibiting enzymatic activity of the recombinant 15-PGDH in the assay described above.

IC50 [nM]	Structure (SMILES)
0.637	Cn1cc2cc(-c3ccc4cc(C(O)[C@H]5CCOC5)sc4n3)cnc2n1 (single isomer, unassigned) [B19(RS)S]
1.84	C[C@@H](O)c1cc2c(-c3ccnn3C)cc(-c3cnc4nn(C)cc4c3)nc2s1 (single isomer, unassigned) [Compound B6R]
89.6	C[C@H](O)c1cc2c(-c3ccnn3C)cc(-c3cnc4nn(C)cc4c3)nc2s1 (single isomer, unassigned) [Compound B6S]
8.41	COCCC(O)c1cc2ccc(-c3cnc4nn(C)cc4c3)cc2s1 (centres unmarked) [Compound B59, 3-methoxy-1-(6-(2-methyl-2H-pyrazolo[3,4-b]pyridin-5-yl)-1-benzothiophen-2-yl)-1-propanol]
20.7	CN1CCC(C(O)c2cc3ccc(-c4cnc5nn(C)cc5c4)nc3s2)C1 (centres unmarked) [Compound B62, (6-(2-methyl-2H-pyrazolo[3,4-b]pyridin-5-yl)thieno[2,3-b]pyridin-2-yl)(1-methyl-3-pyrrolidinyl)methanol]
15	CN1CCCC(C(O)c2cc3ccc(-c4cnc5nn(C)cc5c4)nc3s2)C1 (centres unmarked) [Compound B63]
0.749	Nc1c(C(O)C2CC(F)(F)C2)sc2nc(-c3cncnc3)ccc12 (centres unmarked) [Compound B71, (3-amino-6-(5-pyrimidinyl)thieno[2,3-b]pyridin-2-yl)(3,3-difluorocyclobutyl)methanol]
1.65	Cn1nnc2cc(-c3ccc4cc([C@@H](O)C5CC(F)(F)C5)sc4n3)cnc21 [Compound B82S, (S)-(3,3-difluorocyclobutyl)(6-(3-methyl-3H-[1,2,3]triazolo[4,5-b]pyridin-6-yl)thieno[2,3-b]pyridin-2-yl)methanol]
0.44	Cn1cc2cc(-c3cnc4sc([C@H](O)C5CC(F)(F)C5)cc4n3)cnc2n1 [Compound B96R, (R)-(3,3-difluorocyclobutyl)(2-(2-methyl-2H-pyrazolo[3,4-b]pyridin-5-yl)thieno[2,3-b]pyrazin-6-yl)methanol]
3.1	Cn1cc2cc(-c3cnc4sc([C@@H](O)C5CC(F)(F)C5)cc4n3)cnc2n1 [Compound B96S, (S)-(3,3-difluorocyclobutyl)(2-(2-methyl-2H-pyrazolo[3,4-b]pyridin-5-yl)thieno[2,3-b]pyrazin-6-yl)methanol]
43.8	COCCC(C)(O)c1cc2ccc(-c3cnc4nn(C)cc4c3)nc2s1 (centres unmarked) [Compound C1, 4-methoxy-2-(6-(2-methyl-2H-pyrazolo[3,4-b]pyridin-5-yl)thieno[2,3-b]pyridin-2-yl)-2-butanol]
225	Cn1cc2cc(-c3ccc4cc(C(C)(O)C(F)(F)F)sc4n3)cnc2n1 (centres unmarked) [Compound C2, 1,1,1-trifluoro-2-(6-(2-methyl-2H-pyrazolo[3,4-b]pyridin-5-yl)thieno[2,3-b]pyridin-2-yl)-2-propanol]
807	COCCC(O)(c1cc2ccc(-c3cnc4nn(C)cc4c3)nc2s1)C(F)(F)F (centres unmarked) [Compound C3, 1,1,1-trifluoro-4-methoxy-2-(6-(2-methyl-2H-pyrazolo[3,4-b]pyridin-5-yl)thieno[2,3-b]pyridin-2-yl)-2-butanol]
1800	CN1CCC(O)(c2cc3ccc(-c4cnc5nn(C)cc5c4)nc3s2)C1 (centres unmarked) [Compound C4, 1-methyl-3-(6-(2-methyl-2H-pyrazolo[3,4-b]pyridin-5-yl)thieno[2,3-b]pyridin-2-yl)-3-pyrrolidinol]
544	COCC(C)(O)c1cc2ccc(-c3cnc4nn(C)cc4c3)nc2s1 (centres unmarked) [Compound C6, 1-methoxy-2-(6-(2-methyl-2H-pyrazolo[3,4-b]pyridin-5-yl)thieno[2,3-b]pyridin-2-yl)-2-propanol]
2920	CN1CCC(O)(c2cc3ccc(-c4cnc5nn(C)cc5c4)nc3s2)CC1 [Compound C7, 1-methyl-4-(6-(2-methyl-2H-pyrazolo[3,4-b]pyridin-5-yl)thieno[2,3-b]pyridin-2-yl)-4-piperidinol]

IC50 [nM]	Structure (SMILES)
67.7	Cn1cc2cc(-c3ccc4cc(C5(O)CCS(=O)(=O)CC5)sc4n3)cnc2n1 [Compound C8, 4-(6-(2-methyl-2H-pyrazolo[3,4-b]pyridin-5-yl)thieno[2,3-b]pyridin-2-yl)tetrahydro-2H-thiopyran-4-ol 1,1-dioxide]
419	Cn1cc2cc(-c3ccc4cc(C(C)(C)O)sc4n3)cnc2n1 [Compound C9, 2-(6-(2-methyl-2H-pyrazolo[3,4-b]pyridin-5-yl)thieno[2,3-b]pyridin-2-yl)-2-propanol]
195	CCC(C)(O)c1cc2ccc(-c3cnc4nn(C)cc4c3)nc2s1 (centres unmarked) [Compound C10, 2-(6-(2-methyl-2H-pyrazolo[3,4-b]pyridin-5-yl)thieno[2,3-b]pyridin-2-yl)-2-butanol]
101	Cn1cc2cc(-c3ccc4cc(C(C)(O)C5CC5)sc4n3)cnc2n1 (centres unmarked) [Compound C11, 1-cyclopropyl-1-(6-(2-methyl-2H-pyrazolo[3,4-b]pyridin-5-yl)thieno[2,3-b]pyridin-2-yl)ethanol]
7.27	CN1CC(O)(c2cc3ccc(-c4cnc5nn(C)cc5c4)nc3s2)C1 [Compound C12, 1-methyl-3-(6-(2-methyl-2H-pyrazolo[3,4-b]pyridin-5-yl)thieno[2,3-b]pyridin-2-yl)-3-azetidinol]
761	CN1CCCC(O)(c2cc3ccc(-c4cnc5nn(C)cc5c4)nc3s2)C1 (centres unmarked) [Compound C13, 1-methyl-3-(6-(2-methyl-2H-pyrazolo[3,4-b]pyridin-5-yl)thieno[2,3-b]pyridin-2-yl)-3-piperidinol]
555	CCC(O)(c1cc2ccc(-c3cnc4nn(C)cc4c3)nc2s1)C(F)(F)F (centres unmarked) [Compound C14, 1,1,1-trifluoro-2-(6-(2-methyl-2H-pyrazolo[3,4-b]pyridin-5-yl)thieno[2,3-b]pyridin-2-yl)-2-butanol]
235	COCC(O)(c1cc2ccc(-c3cnc4nn(C)cc4c3)nc2s1)C(F)(F)F (centres unmarked) [Compound C16, 1,1,1-trifluoro-3-methoxy-2-(6-(2-methyl-2H-pyrazolo[3,4-b]pyridin-5-yl)thieno[2,3-b]pyridin-2-yl)-2-propanol]
1260	Cn1cc2cc(-c3ccc4cc(C(O)(C5CC5)C(F)(F)F)sc4n3)cnc2n1 (centres unmarked) [Compound C17, 1-cyclopropyl-2,2,2-trifluoro-1-(6-(2-methyl-2H-pyrazolo[3,4-b]pyridin-5-yl)thieno[2,3-b]pyridin-2-yl)ethanol]
12.9	Cn1cc2cc(-c3ccc4cc(C5(O)COC5)sc4n3)cnc2n1 [Compound C18, 3-(6-(2-methyl-2H-pyrazolo[3,4-b]pyridin-5-yl)thieno[2,3-b]pyridin-2-yl)-3-oxetanol]
40.6	Cn1cc2cc(-c3ccc4cc(C5(O)CCCC5)sc4n3)cnc2n1 [Compound C19, 1-(6-(2-methyl-2H-pyrazolo[3,4-b]pyridin-5-yl)thieno[2,3-b]pyridin-2-yl)cyclopentanol]
86	Cn1cc2cc(-c3ccc4cc(C5(O)CCOC5)sc4n3)cnc2n1 (centres unmarked) [Compound C20, 3-(6-(2-methyl-2H-pyrazolo[3,4-b]pyridin-5-yl)thieno[2,3-b]pyridin-2-yl)tetrahydro-3-furanol]
257	Cn1cc2cc(-c3ccc4cc(C5(O)CCOCC5)sc4n3)cnc2n1 [Compound C22, 4-(6-(2-methyl-2H-pyrazolo[3,4-b]pyridin-5-yl)thieno[2,3-b]pyridin-2-yl)tetrahydro-2H-pyran-4-ol]
230	Cn1cc2cc(-c3cc(-c4ccnn4C)c4cc(C(O)(C5CCC5)C(F)(F)F)sc4n3)cnc2n1 (centres unmarked) [Compound C24, 1-cyclobutyl-2,2,2-trifluoro-1-(6-(2-methyl-2H-pyrazolo[3,4-b]pyridin-5-yl)-4-(1-methyl-1H-pyrazol-5-yl)thieno[2,3-b]pyridin-2-yl)ethanol]
0.62	O=C1NCc2cc(-c3ncc4cc([C@]5(O)C[C@@H](C(F)(F)F)C5)sc4n3)cnc21 [Compound C128C, 3-(6-(cis-1-hydroxy-3-(trifluoromethyl)cyclobutyl)thieno[2,3-d]pyrimidin-2-yl)-5,6-dihydro-7H-pyrrolo[3,4-b]pyridin-7-one]
3.5	O[C@]1(c2cc3cnc(-c4cnc5nncn5c4)nc3s2)C[C@H](C(F)(F)F)C1 [Compound C129C, cis-1-(2-([1,2,4]triazolo[4,3-a]pyrimidin-6-yl)thieno[2,3-d]pyrimidin-6-yl)-3-(trifluoromethyl)cyclobutanol]
